The subject of test [1] is human hepatocellular carcinoma cell HepG2 (NRAS-Q61K mutation). The experiment in a line: Cancer cell proliferation inhibition assay, HepG2. Conditions: 72 h incubation, Cell Titer Glo. The test is classed as cell-based. The text has this: (§1) The inhibitory effects of the compounds of the present invention on cancer cell proliferation were further evaluated by testing the effects of the compounds of the present invention on the growth of cancer cells.
(§2) In this example, human melanoma cell A375 (BRAF-V600E mutation, purchased from the Cell Bank of the Chinese Academy of Sciences) and human hepatocellular carcinoma cell HepG2 (NRAS-Q61K mutation, purchased from ATCC, USA) were employed.
(§3) In this example, the test compounds at various concentrations (100000 nM, 30000 nM, 10000 nM, 3000 nM, 1000 nM, 300 nM, 100 nM, 30 nM, 10 nM) were added to the above cells, and the incubation was performed for 72 h. The inhibitory activity of the compounds was tested by measuring ATP in living cells using the Cell Titer Glo Kit (Promega).
(§4) The IC50 values of the compounds of the present invention for each tested cell were determined, and the test results are as follows: […]

Test [2] concerns human melanoma cell A375 (BRAF-V600E mutation). Kind of test: Cancer cell proliferation inhibition assay, A375. Type of test: cell-based. Conditions: A-375, 72 h incubation, Cell Titer Glo.
Text: as §1, §2, §3, §4
A general note: In ATP-based viability assays light output follows the ATP content of the culture.

In the case of `Cc1ccc(Nc2nccc3c(NC(=O)c4cccc5c(N)ncnc45)c(C)ccc23)cc1` [Compound 65, 4-amino-N-(6-methyl-1-(p-tolylamino)isoquinolin-5-yl)quinazoline-8-carboxamide], the results for the IC50 in test [1] and in test [2] were 38.8 ± 3 nM and 47.1 ± 9.4 nM, respectively. With `Cc1ccc2c(Nc3ccc(Cl)c(F)c3F)nccc2c1NC(=O)c1cnc2c(N)ncnn12` [Compound 70, 4-amino-N-(1-((4-chloro-2,3-difluorophenyl)amino)-6-methylisoquinolin-5-yl)imidazo[2,1-f][1,2,4]triazine-7-carboxamide], the IC50 (usually the concentration at which inhibition is half-maximal) in test [1] amounted to 59.9 ± 6.8 nM; in test [2], 190 ± 23.8 nM.

In turn, `Cc1ccc2c(Nc3cccc(OCCN4CCOCC4)c3F)nccc2c1NC(=O)c1cccc2c(N)ncnc12` [Compound 98, 4-amino-N-(1-((2-fluoro-3-(2-morpholinoethoxy)phenyl)amino)-6-methylisoquinolin-5-yl)quinazoline-8-carboxamide] gave an IC50 in test [1] of 63.7 ± 4.4 nM.

With `Cc1ccc2c(Nc3cccc(Cl)c3F)nccc2c1NC(=O)c1ccnc2c(N)ncnc12` [Compound 81, 4-amino-N-(1-((3-chloro-2-fluorophenyl)amino)-6-methylisoquinolin-5-yl)pyrido[3,2-d]pyrimidine-8-carboxamide], the IC50 in test [1] is 222 ± 29.8 nM. Against the preceding molecule, the IC50 is about 3.5-fold higher. Regarding `COc1ccc(Nc2nccc3c(NC(=O)c4cccc5c(N)ncnc45)c(C)ccc23)cn1` [Compound 75, 4-amino-N-(1-((6-methoxypyridin-3-yl)amino)-6-methylisoquinolin-5-yl)quinazoline-8-carboxamide], the results for the IC50 in test [1] and in test [2] were 34 ± 7.6 nM and 67.7 ± 15.1 nM, respectively. `Cc1ccc2c(Nc3cccc(Cl)c3F)nccc2c1NC(=O)c1cc(N2CCOCC2)cc2c(N)ncnc12` [Compound 53, 4-amino-N-(1-((3-chloro-2-fluorophenyl)amino)-6-methylisoquinolin-5-yl)-6-morpholinoquinazoline-8-carboxamide]: the values for the IC50 in test [1] and in test [2] were 113 ± 3.35 nM and 77.7 ± 2.3 nM, respectively. As to `Cc1ccc2c(Nc3cccc(Cl)c3F)nccc2c1NC(=O)c1cn(C)c2c(N)ncnc12` [Compound 101, 4-amino-N-(1-((3-chloro-2-fluorophenyl)amino)-6-methylisoquinolin-5-yl)-5-methyl-5H-pyrrolo[3,2-d]pyrimidine-7-carboxamide], 81.1 ± 4.5 nM corresponded to half-maximal inhibition in test [1] (IC50).

`Cc1ccc2c(C(O)c3ccccc3Cl)nccc2c1NC(=O)c1cccc2c(N)ncnc12` (centres unmarked) [Compound 24, 4-amino-N-(1-((2-chlorophenyl)(hydroxy)methyl)-6-methylisoquinolin-5-yl)quinazoline-8-carboxamide]: half-maximal inhibition in test [2] (IC50) was put at 70.7 ± 6.15 nM. As to `COc1ccc(Nc2nccc3c(NC(=O)c4cnc5c(N)ncnn45)c(C)ccc23)c(F)c1` [Compound 61, 4-amino-N-(1-((2-fluoro-4-methoxyphenyl)amino)-6-methylisoquinolin-5-yl)imidazo[2,1-f][1,2,4]triazine-7-carboxamide], the IC50 was found to be 21.3 ± 4.88 nM in test [1] and 141 ± 4.88 nM in test [2].

For the molecule `Cc1ccc2c(Nc3cccc(Cl)c3F)nccc2c1NC(=O)c1cc(N2CCN(C)CC2)cc2c(N)ncnc12` [Compound 54, 4-amino-N-(1-((3-chloro-2-fluorophenyl)amino)-6-methylisoquinolin-5-yl)-6-(4-methylpiperazin-1-yl)quinazoline-8-carboxamide], the IC50 is 95.6 ± 8.18 nM in test [1] and 108 ± 19.9 nM in test [2].

On to `CCOc1ccc(Nc2nccc3c(NC(=O)c4cccc5c(N)ncnc45)c(C)ccc23)c(F)c1` [Compound 74, 4-amino-N-(1-((4-ethoxy-2-fluorophenyl)amino)-6-methylisoquinolin-5-yl)quinazoline-8-carboxamide], for which the IC50 in test [1] was 62.3 ± 9.2 nM; in test [2] it was 62.7 ± 12.5 nM.

Regarding `Cc1ccc2c(Nc3ccc(Cl)cc3F)nccc2c1NC(=O)c1cnc2c(N)ncnn12` [Compound 55, 4-amino-N-(1-((4-chloro-2-fluorophenyl)amino)-6-methylisoquinolin-5-yl)imidazo[2,1-f][1,2,4]triazine-7-carboxamide], the IC50 in test [1] is 30.4 ± 4.3 nM. For `Cc1ccc2c(Nc3ccc(N(C)C)nc3)nccc2c1NC(=O)c1cccc2c(N)ncnc12` [Compound 59, 4-amino-N-(1-((6-(dimethylamino)pyridin-3-yl)amino)-6-methylisoquinolin-5-yl)quinazoline-8-carboxamide], the IC50 is 211 ± 16.6 nM in test [1] and 85 ± 5.2 nM in test [2]. In the same order, the values of `Cc1ccc2c(Nc3cc(C#N)ccc3F)nccc2c1NC(=O)c1cccc2c(N)ncnc12` [Compound 80, 4-amino-N-(1-((5-cyano-2-fluorophenyl)amino)-6-methylisoquinolin-5-yl)quinazoline-8-carboxamide] are 75.4 ± 6 nM and 167 ± 8.47 nM. Molecule `Cc1ccc2c(Nc3cccc(Cl)c3)nccc2c1NC(=O)c1cnc2c(N)ncnn12` [Compound 12, 4-amino-N-(1-((3-chlorophenyl)amino)-6-methylisoquinolin-5-yl)imidazo[2,1-f][1,2,4]triazine-7-carboxamide] yielded an IC50 in test [1] of 13.9 ± 1.7 nM. Regarding `Cc1ccc(Nc2nccc3c(NC(=O)c4cccc5c(N)ncnc45)c(C)ccc23)c(F)c1` [Compound 88, 4-amino-N-(1-((2-fluoro-4-methylphenyl)amino)-6-methylisoquinolin-5-yl)quinazoline-8-carboxamide], the IC50 was determined as 70.2 ± 9.8 nM in test [1] and 55.4 ± 8 nM in test [2].

With `Cc1ccc2c(Nc3ccc(CN(C)C)c(C(F)(F)F)c3)nccc2c1NC(=O)c1cnc2c(N)ncnn12` [Compound 62, 4-amino-N-(1-((4-((dimethylamino)methyl)-3-(trifluoromethyl)phenyl)amino)-6-methylisoquinolin-5-yl)imidazo[2,1-f][1,2,4]triazine-7-carboxamide], the values for the IC50 in test [1] and in test [2] were 82.2 ± 10.1 nM and 49.1 ± 2.74 nM, respectively.

`Cc1ccc2c(Nc3c(F)c(F)cc(F)c3F)nccc2c1NC(=O)c1cccc2c(N)ncnc12` [Compound 95, 4-amino-N-(6-methyl-1-((2,3,5,6-tetrafluorophenyl)amino)isoquinolin-5-yl)quinazoline-8-carboxamide]: the IC50 in test [1] turned out to be 69 ± 18.9 nM. For the molecule `Cc1ccc2c(Nc3cc(Cl)ccc3F)nccc2c1NC(=O)c1cc(F)cc2c(N)ncnc12` [Compound 84, 4-amino-N-(1-((5-chloro-2-fluorophenyl)amino)-6-methylisoquinolin-5-yl)-6-fluoroquinazoline-8-carboxamide], the figures for the IC50 in test [1] and in test [2] were 67.2 ± 9.93 nM and 165 ± 6.5 nM, respectively.

Take `Cc1ccc2c(Nc3cccc(Cl)c3F)nccc2c1NC(=O)c1cc(O)cc2c(N)ncnc12` [Compound 76, 4-amino-N-(1-((3-chloro-2-fluorophenyl)amino)-6-methylisoquinolin-5-yl)-6-hydroxyquinazoline-8-carboxamide]: the values for the half-inhibitory concentration (IC50) in test [1] and in test [2] were 147 ± 19.2 nM and 202 ± 5.74 nM, respectively. `Cc1ccc2c(Nc3cc(F)ccc3F)nccc2c1NC(=O)c1cccc2c(N)ncnc12` [Compound 72, 4-amino-N-(1-((2,5-difluorophenyl)amino)-6-methylisoquinolin-5-yl)quinazoline-8-carboxamide]: the IC50 in test [1] was found to be 64.3 ± 12.3 nM. With `Cc1ccc2c(Nc3cc(F)c(F)c(F)c3F)nccc2c1NC(=O)c1cccc2c(N)ncnc12` [Compound 96, 4-amino-N-(6-methyl-1-((2,3,4,5-tetrafluorophenyl)amino)isoquinolin-5-yl)quinazoline-8-carboxamide], half-maximal inhibition in test [1] (IC50) was put at 119 ± 29.3 nM.
